Measurements reported in patent publication US11919905B2, “Substituted benzo[f]imidazo[1,2-a][1,4]diazepines as anesthetics” (HANGZHOU ADAMERCK PHARMLABS INC., priority 2017, dated 2024).

Key:
ICR mice [1] = assay: Disappearance of righting reflex in mice induced by drugs (single i.v. bolus); format: in vivo; details: 100 mg/kg single bolus via tail vein, male ICR mice
Procedure: After ICR mice (male, 18-25 g) were fast injected with the same dose (100 mg/kg) of the test drug in a single bolus via the tail vein, the incubation period and the duration of disappearance of the righting reflex in mice were recorded. Wherein, the incubation period refers to the time from the start of administration to the disappearance of the animal's righting reflex, and the duration refers to the time from the disappearance of the righting reflex to the recovery.

ICR mice [2] = assay: Effective dose and lethal dose of intravenous administration in mice; format: in vivo
Procedure: ICR mice (males, 18-25 g) were randomly grouped and were fast given a single bolus of different doses of test drug via the tail vein, and the lowest dose causing the righting reflex to disappear (effective dose) and the dose causing animal death (lethal dose) were recorded, and the treatment windows (lethal dose/effective dose) were calculated.

mice [3] = assay: Multiple (9 times) i.v. administrations: duration of disappearance of righting reflex in mice; format: in vivo
Procedure: Animals in each group were given the corresponding drug solution multiple times by the tail vein injection (i.v.) in accordance with the corresponding group, 0.1 ml per mouse each time, for 9 times of consecutive injections (the administration group mice were injected when the righting reflex was recovered). The durations of each disappearance of righting reflex were recorded, and the data was expressed as an average.

mice [4] = assay: Multiple (10 times) i.v. administrations: autonomous activity of mice; format: in vivo
Procedure: Animals in each group were given the corresponding drug solution multiple times by the tail vein injection (i.v.) in accordance with the corresponding group, 0.1 ml per mouse each time, for ten times of consecutive injections (the administration group mice were injected when the righting reflex was recovered). Then the autonomous activity of mice was measured immediately and the recording time was 50 minutes. Data were expressed as mean±standard deviation.

mice [5] = assay: Single i.v. administration: autonomous activity of mice; format: in vivo
Procedure: Animals in each group were tested for their autonomous activities, each mouse for 10 minutes. After that, the animals in each group were given a single corresponding drug solution by the tail vein injection (i.v.) according to the corresponding group, 0.1 ml per 10 g body weight, and the autonomous activity of the mice was measured immediately after the administration, and the recording time was 50 min. Data were expressed as mean±standard deviation. Wherein, the dosage of propofol was 20 mg/kg.

[6] = background statement; cited from earlier work
[7] = single bolus via tail vein, male ICR mice
[8] = 50 mg/kg i.v., administration 1
[9] = 50 mg/kg i.v., administration 2
[10] = 50 mg/kg i.v., administration 3
[11] = 50 mg/kg i.v., administration 4
[12] = 50 mg/kg i.v., administration 5
[13] = 50 mg/kg i.v., administration 6
[14] = 50 mg/kg i.v., administration 7
[15] = 50 mg/kg i.v., administration 8
[16] = 50 mg/kg i.v., administration 9
[17] = 75 mg/kg i.v., administration 1
[18] = 75 mg/kg i.v., administration 2
[19] = 75 mg/kg i.v., administration 3
[20] = 75 mg/kg i.v., administration 4
[21] = 75 mg/kg i.v., administration 5
[22] = 75 mg/kg i.v., administration 6
[23] = 75 mg/kg i.v., administration 7
[24] = 75 mg/kg i.v., administration 8
[25] = 75 mg/kg i.v., administration 9
[26] = 100 mg/kg i.v., administration 1
[27] = 100 mg/kg i.v., administration 2
[28] = 100 mg/kg i.v., administration 3
[29] = 100 mg/kg i.v., administration 4
[30] = 100 mg/kg i.v., administration 5
[31] = 100 mg/kg i.v., administration 6
[32] = 100 mg/kg i.v., administration 7
[33] = 100 mg/kg i.v., administration 8
[34] = 100 mg/kg i.v., administration 9

SMILES: COC(=O)CC[C@@H]1N=C(c2ccccn2)c2cc(F)c(C)cc2-n2c(C)cnc21.Cc1ccc(S(=O)(=O)O)cc1 [Compound 1-2]
- Duration (time from disappearance of righting reflex to recovery) (ICR mice [1]): 6.02 min
- Incubation period (time from start of administration to disappearance of righting reflex) (ICR mice [1]): 0.52 min
- minimal effective dose (ICR mice [2]; Mus musculus, iv, single bolus via tail vein, male ICR mice, read-out: Effective dose (lowest dose causing the righting reflex to disappear)): 40 mg/kg
- effective dose reduced, compared to remimazolam (p-toluenesulfonate) (ICR mice [2]; mice, i.v.): 33.3%
- lethal dose increased, compared to remimazolam (p-toluenesulfonate) (ICR mice [2]; mice, i.v.): 64%
- treatment window increased, compared to remimazolam (p-toluenesulfonate) (ICR mice [2]; mice, i.v.): 2.5 times
- Lethal dose (dose causing animal death) (ICR mice [2]; [7]): 360 mg/kg
- Treatment window (lethal dose/effective dose) (ICR mice [2]; [7]): 9
- Percentage of extension of righting reflex disappearance (mice [3]; [8]): 100%
- righting reflex disappearance time (mice [3]; [8]): 2.5 min
- Percentage of extension of righting reflex disappearance (mice [3]; [9]): 179%
- righting reflex disappearance time (mice [3]; [9]): 4.4 min
- Percentage of extension of righting reflex disappearance (mice [3]; [10]): 192%
- righting reflex disappearance time (mice [3]; [10]): 4.8 min
- Percentage of extension of righting reflex disappearance (mice [3]; [11]): 227%
- righting reflex disappearance time (mice [3]; [11]): 5.6 min
- Percentage of extension of righting reflex disappearance (mice [3]; [12]): 237%
- righting reflex disappearance time (mice [3]; [12]): 5.9 min
- Percentage of extension of righting reflex disappearance (mice [3]; [13]): 208%
- righting reflex disappearance time (mice [3]; [13]): 5.2 min
- Percentage of extension of righting reflex disappearance (mice [3]; [14]): 268%
- righting reflex disappearance time (mice [3]; [14]): 6.6 min
- Percentage of extension of righting reflex disappearance (mice [3]; [15]): 260%
- righting reflex disappearance time (mice [3]; [15]): 6.5 min
- Percentage of extension of righting reflex disappearance (mice [3]; [16]): 268%
- righting reflex disappearance time (mice [3]; [16]): 6.6 min
- disappearance time of righting reflex as share of that of the propofol group (mice [3]; 75 mg/kg dose group, after 6-7 administrations, vs propofol 20 mg/kg): 65-70%
- Percentage of extension of righting reflex disappearance (mice [3]; [17]): 100%
- righting reflex disappearance time (mice [3]; [17]): 5.3 min
- Percentage of extension of righting reflex disappearance (mice [3]; [18]): 128%
- righting reflex disappearance time (mice [3]; [18]): 6.7 min
- Percentage of extension of righting reflex disappearance (mice [3]; [19]): 159%
- righting reflex disappearance time (mice [3]; [19]): 8.4 min
- Percentage of extension of righting reflex disappearance (mice [3]; [20]): 173%
- righting reflex disappearance time (mice [3]; [20]): 9.1 min
- Percentage of extension of righting reflex disappearance (mice [3]; [21]): 194%
- righting reflex disappearance time (mice [3]; [21]): 10.2 min
- Percentage of extension of righting reflex disappearance (mice [3]; [22]): 219%
- righting reflex disappearance time (mice [3]; [22]): 11.5 min
- Percentage of extension of righting reflex disappearance (mice [3]; [23]): 231%
- righting reflex disappearance time (mice [3]; [23]): 12.1 min
- Percentage of extension of righting reflex disappearance (mice [3]; [24]): 211%
- righting reflex disappearance time (mice [3]; [24]): 11.1 min
- Percentage of extension of righting reflex disappearance (mice [3]; [25]): 211%
- righting reflex disappearance time (mice [3]; [25]): 11.1 min
- Percentage of extension of righting reflex disappearance (mice [3]; [26]): 100%
- righting reflex disappearance time (mice [3]; [26]): 8.9 min
- Percentage of extension of righting reflex disappearance (mice [3]; [27]): 121%
- righting reflex disappearance time (mice [3]; [27]): 10.8 min
- Percentage of extension of righting reflex disappearance (mice [3]; [28]): 154%
- righting reflex disappearance time (mice [3]; [28]): 13.8 min
- Percentage of extension of righting reflex disappearance (mice [3]; [29]): 177%
- righting reflex disappearance time (mice [3]; [29]): 15.8 min
- Percentage of extension of righting reflex disappearance (mice [3]; [30]): 181%
- righting reflex disappearance time (mice [3]; [30]): 16.2 min
- Percentage of extension of righting reflex disappearance (mice [3]; [31]): 240%
- righting reflex disappearance time (mice [3]; [31]): 21.5 min
- Percentage of extension of righting reflex disappearance (mice [3]; [32]): 234%
- righting reflex disappearance time (mice [3]; [32]): 20.9 min
- Percentage of extension of righting reflex disappearance (mice [3]; [33]): 238%
- righting reflex disappearance time (mice [3]; [33]): 21.2 min
- Percentage of extension of righting reflex disappearance (mice [3]; [34]): 236%
- righting reflex disappearance time (mice [3]; [34]): 21.1 min
- accumulation effect (prolonged rate of righting reflex disappearance time after multiple administrations) (mice [3]; each dose group vs propofol group): lower than that of propofol
- dose dependence of duration of righting reflex disappearance (mice [3]; i.v., 50-100 mg/kg): dose-dependent
- number of consecutive administrations after which duration of righting reflex disappearance reached steady state (mice [3]; repeated i.v. administration, each dose group): 5-6
- time after administration until autonomous activity returned to normal levels (mice [4]; 10 consecutive i.v. injections, 50 mg/kg): 15 to 20 min
- return of autonomous activity to normal levels (mice [4]; 10 consecutive i.v. injections, 100 mg/kg, test period 50 minutes): did not return to normal levels during the test period
- recovery of the number of autonomous activities and the rest time after multiple administrations (mice [4]; multiple i.v. administrations, vs propofol): better than that of propofol
- time after administration until autonomous activity returned to normal level (mice [5]; single i.v. 50 mg/kg (low-dose group)): 15 min
- total distance of autonomous activity compared with blank group (mice [5]; single i.v. 50 mg/kg-100 mg/kg, within 10 minutes of injection): significantly lower than that of the blank group
- time after administration until autonomous activity returned to normal level (mice [5]; single i.v. 75 mg/kg (medium-dose group)): 35 min
- autonomous activity compared with blank group (mice [5]; single i.v. 100 mg/kg (high-dose group), 50 min test period): consistently lower than that of the blank group during the test period

SMILES: COC(=O)CC[C@@H]1N=C(c2ccccn2)c2cc(Br)ccc2-n2c(C)cnc21.Cc1ccc(S(=O)(=O)O)cc1 [Remimazolam (p-toluenesulfonate), Remimazolam, reference compound]
- Duration (time from disappearance of righting reflex to recovery) (ICR mice [1]): 9.43 min
- Incubation period (time from start of administration to disappearance of righting reflex) (ICR mice [1]): 0.73 min
- Effective dose (lowest dose causing the righting reflex to disappear) (ICR mice [2]; [7]): 60 mg/kg
- Lethal dose (dose causing animal death) (ICR mice [2]; [7]): 220 mg/kg
- Treatment window (lethal dose/effective dose) (ICR mice [2]; [7]): 3.6
- side effects in preclinical animal experiments [6]: limb jitters, head tilting, opisthotonus

SMILES: COC(=O)CC[C@@H]1N=C(c2ccccn2)c2cc(Br)ccc2-n2c(C)cnc21.O=S(=O)(O)c1ccccc1 [Remimazolam (besylate), Remimazolam, reference compound]
- Duration (time from disappearance of righting reflex to recovery) (ICR mice [1]): 10.61 min
- Incubation period (time from start of administration to disappearance of righting reflex) (ICR mice [1]): 0.64 min
- Effective dose (lowest dose causing the righting reflex to disappear) (ICR mice [2]; [7]): 60 mg/kg
- Lethal dose (dose causing animal death) (ICR mice [2]; [7]): 280 mg/kg
- Treatment window (lethal dose/effective dose) (ICR mice [2]; [7]): 4.6
- side effects in preclinical animal experiments [6]: limb jitters, head tilting, opisthotonus
